Patent US9937235B2, “Lipidated peptides as anti-obesity agents” (USTAV ORGANICKE CHEMIE A BIOCHEMIE AKADEMIE VED CR, V.V.I, priority 2012, dated 2018)
One block for each molecule: values may come before it. Where a SMILES comes first, the peptide text is derived from it. Where no end group is shown, it is not given here. [ ]: non-standard residue; d: D form. The star is where a group is joined. Tridecanoyl = CCCCCCCCCCCCC(=O)*; Myristoyl = CCCCCCCCCCCCCC(=O)*; Nle = CCCC[C@H](N)C(=O)O; Dap = NC[C@H](N)C(=O)O

Key:
[1] = target: T1, rat PrRP receptor (GPR10) in RC-4B/C cells (Rattus norvegicus, UniProt Q64121); assay: Competitive binding to rat pituitary RC-4B/C cells; conditions: ^125I-rat PrRP31, RC-4B/C cells
T1 construct: host or cells: RC-4B/C rat pituitary cell line
T1 sequence (Q64121 1-370): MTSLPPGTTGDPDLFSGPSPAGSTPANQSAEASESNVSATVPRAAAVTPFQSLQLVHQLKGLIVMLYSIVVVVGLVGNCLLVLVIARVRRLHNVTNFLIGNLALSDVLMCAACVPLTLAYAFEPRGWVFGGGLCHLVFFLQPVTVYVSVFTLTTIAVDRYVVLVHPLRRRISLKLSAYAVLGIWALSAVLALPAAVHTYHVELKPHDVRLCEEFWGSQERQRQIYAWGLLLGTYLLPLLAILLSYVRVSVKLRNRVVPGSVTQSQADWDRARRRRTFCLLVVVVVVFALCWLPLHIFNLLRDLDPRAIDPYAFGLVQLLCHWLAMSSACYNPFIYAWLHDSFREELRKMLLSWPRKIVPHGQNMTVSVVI

[2] = tested on: MAPK/ERK1/2 signaling pathway in RC-4B/C cells; assay: MAPK/ERK1/2 signaling in RC-4B/C cells (Western blot); format: cell-based, rat; conditions: 10^−6 mol·l^−1, 5 minute incubation
Protocol: RC-4B/C cells, which were used to determine if lipidated PrRP20 analogs are able to initiate the MAPK/ERK1/2 signaling pathway, were grown in 6-well plates up to the optimal density of […]. Seventeen hours before sample harvest, the growth medium was replaced by a serum-free medium lacking epidermal growth factor (EGF). The respective lipidated PrRP analog was added to each well in the final concentration of 10^−6 mol·l^−1. After a 5 minute incubation at 37° C., the plate was placed on ice and each well was rinsed three times with PBS pH 7.4 (137 mmol·l^−1 NaCl, 2.7 mmol·l^−1 KCl, 8 mmol·l^−1 Na2HPO4.2H2O a 1.76 mmol·l^−1 KH2PO4) and cooled to 4° C. […] Samples were collected in at least three independent experiments.
To determine if the lipidated PrRP20 analogs initiated the MAPK/ERK1/2 signaling pathway, Western blot analysis was used. Electrophoresis was performed on 5%/12% polyacrylamide gel in the presence of SDS (SDS-PAGE) on the instrument MiniProtean 3 (BioRad, Herkules, Calif., USA). Samples that were loaded on the gel were first disintegrated by ultrasound, then heated at 100° C. for 2 minutes, and centrifuged for 5 minutes at 500×g at room temperature. […] Electrophoresis was performed at a constant voltage of 100 V for 10 minutes, or for 60 minutes at 150 V.
To show the presence of phosphorylated proteins in the samples, the proteins from the SDS-PAGE gel were transferred to the Immobilon™-P PVDF (polyvinylidene difluoride) membrane (Sigma-Aldrich, USA). The transfer was performed in blotting buffer at pH 8.3 (25 mmol·l^−1 Tris, 192 mmol·l^−1 glycine and 20% methanol) for 20 hours at 4° C. at a constant voltage of 30 V.
After the protein transfer to the PVDF membrane, the membranes were washed for 5 minutes in TBS washing buffer (20 mmol·l^−1 Tris, 140 mmol·l^−1 NaCl and 0.1% Tween-20) and then incubated for 1 hour in blocking buffer (TBS with 5% non-fat milk powder and 5 mmol·l^−1 Na3VO4 and 50 mmol·l^−1 NaF) at room temperature. Further, the membranes were washed three times for 5 minutes using the TBS washing buffer. The membranes were then incubated with the primary antibody against phospho-p44/42 MAPK(Thr202/Tyr204) (Cell Signaling Technology, Beverly, USA) which was diluted in blocking buffer at 1:1000. After the next three washes with the TBS washing buffer for 5 minutes, the membranes were incubated for 1 hour with rabbit secondary antibody labeled with peroxidase (Sigma, St. Louis, USA) which was diluted in blocking buffer at 1:12,000.
The membranes were then washed three times in TBS washing buffer for 5 minutes and then the solution Femto (Pierce SuperSignal, Thermo Fisher Scientific, Rockford, Ill., USA) was applied. The induced chemiluminiscence was detected by a CCD camera (LAS 3000, Fuji Photo Film GmBH, Düsseldorf, Germany).
To assess the initiation of signaling pathways, a densitometric analysis using the program Quantity One (BioRad, Hercules, Calif., USA) was used. For statistical evaluation of the statistically significant response of the cellular signaling, one-way ANOVA with subsequent Dunnett post-hoc test was used. Data was statistically significant at P<0.05.

fasted C57BL/6 mice [3] = assay: Food intake in fasted mice after SC administration; format: in vivo, mouse; conditions: SC administration, 5 mg/kg; for % control: food intake vs saline
In short: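 Male C57BL/6 mice, food-deprived 17 h, received saline, PrRP or lipidated analogs either SC at 1-10 mg/kg or ICV into the third ventricle at 4 nmol/mouse.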

fasted C57BL/6 mice [4] = assay: Food intake in fasted mice after ICV administration; format: in vivo; conditions: 4 nmol/mouse; for % control: food intake vs saline
Protocol: Male C57BL/6 mice (An Lab, Prague 4) were bred in the accredited animal facility in the Institute of Organic Chemistry and Biochemistry, Czech Academy of Sciences, Prague, at the Institute of Molecular Genetics, Prague 4, at the temperature of 22±2° C. with access to food and water ad libitum. The day/night cycle was 12/12 hours (light turned on at 6:00 am). Animals were treated according to the Animal Protection Act (Act No. 246/1992). The males were fed standard chow diet St-1 (Mlýn Kocanda, Praha, Czech Republic) which contained 66% saccharides, 25% proteins and 9% lipids with a caloric value of 3.4 kcal/g.
The food was withdrawn 17 hours prior to injection of lipidated peptide and free access to water was maintained. The administration of saline, PrRP or lipidated analogs was performed either by SC injection at doses of 1-10 mg/kg (volume 0.2 ml/mouse), or by ICV using infusion pump (cannulae were inserted into the third brain ventricle 4 days before the experiment following the procedure of Maixnerová et al. (Maixnerová et al., 2011)). The single dose of peptide was 4 nmol/mouse (5 μl/mouse).
Fifteen minutes after the lipidated peptide administration, the mice were given pre-weighed food. The food was then weighed every 30 minutes for 5-10 hours. The administration of every dose was performed at least twice and one group of mice consisted of at least 6 mice. The results were presented as % of food intake as compared with the control group injected with saline.
Statistical evaluation was performed using program Graph-Pad Prism Software (San Diego, Calif., USA), and the one-way ANOVA with a subsequent Dunnettovým post-hoc test. The difference in food intake between mice injected with saline and mice injected with the examined peptide were considered statistically significant at P<0.05.

[5] = target: T2, rat PrRP receptor in RC-4B/C cells (rat, UniProt Q64121 1-370); assay: competition with 125I-rat PrRP31 on RC-4B/C cells; Ki by Cheng-Prusoff
T2 construct: whole, on cells; also called the rat receptor; GPR10
T2 sequence (looked up): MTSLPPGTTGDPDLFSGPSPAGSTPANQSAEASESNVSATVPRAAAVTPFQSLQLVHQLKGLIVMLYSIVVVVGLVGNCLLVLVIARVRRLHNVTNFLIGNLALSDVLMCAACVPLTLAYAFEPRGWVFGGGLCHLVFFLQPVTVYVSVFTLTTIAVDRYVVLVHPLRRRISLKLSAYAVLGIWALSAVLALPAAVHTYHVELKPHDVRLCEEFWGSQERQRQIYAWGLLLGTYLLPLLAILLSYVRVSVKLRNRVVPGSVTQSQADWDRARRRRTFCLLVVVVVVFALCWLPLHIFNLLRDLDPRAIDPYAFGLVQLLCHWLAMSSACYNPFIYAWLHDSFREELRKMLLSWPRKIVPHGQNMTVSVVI
Protocol: The rat pituitary cell line RC-4B/C (ATCC, Manassas, USA) was grown on 24-well plates which had their bottom coated with polyethyleneimine. The cells were grown to the optimal density of 300-450 thousand per well.
Plates were incubated for 60 minutes at room temperature. After incubation, the cells were solubilized in 0.1 mol/l solution of NaOH and the radioactivity bound to the cells was counted using a γ-counter. The experiments were performed in duplicate and repeated at least three times.

% of PrRP31 binding [1]: 967%
Molecule: CCCCCCCCCCCCC(=O)NC[C@H](N)C(=O)N[C@@H](CCCNC(=N)N)C(=O)N[C@@H](C)C(=O)N[C@@H](Cc1c[nH]cn1)C(=O)N[C@@H](CCC(N)=O)C(=O)N[C@@H](Cc1c[nH]cn1)C(=O)N[C@@H](CO)C(=O)N[C@@H](CCCC)C(=O)N[C@@H](CCC(=O)O)C(=O)N[C@H](C(=O)N[C@@H](CCCNC(=N)N)C(=O)N[C@H](C(=O)N1CCC[C@H]1C(=O)N[C@@H](CC(=O)O)C(=O)N[C@H](C(=O)N[C@@H](CC(N)=O)C(=O)N1CCC[C@H]1C(=O)N[C@@H](C)C(=O)N[C@@H](Cc1c[nH]c2ccccc12)C(=O)N[C@@H](Cc1ccc(O)cc1)C(=O)N[C@H](C(=O)NCC(=O)N[C@@H](CCCNC(=N)N)C(=O)NCC(=O)N[C@H](C(=O)N[C@@H](CCCNC(=N)N)C(=O)N1CCC[C@H]1C(=O)N[C@H](C(=O)NCC(=O)N[C@@H](CCCNC(=N)N)C(=O)N[C@@H](Cc1ccccc1)C(N)=O)C(C)C)[C@@H](C)CC)[C@@H](C)O)[C@@H](C)CC)[C@@H](C)O)[C@@H](C)O [Analog 4] (H-[Dap](Tridecanoyl)RAHQHS[Nle]ETRTPDINPAWYTGRGIRPVGRF-NH2)
ERK signaling [2]: agonist
food intake (fasted C57BL/6 mice [3]; 45 minutes): 0.07 g
% control (fasted C57BL/6 mice [3]; 45 minutes): 30%
food intake (fasted C57BL/6 mice [3]; 300 minutes): 1.04 g
% control (fasted C57BL/6 mice [3]; 300 minutes): 101%
food intake (fasted C57BL/6 mice [4]; 45 minutes): 0.38 g
% control (fasted C57BL/6 mice [4]; 45 minutes): 71%
food intake (fasted C57BL/6 mice [4]; 300 minutes): 1.4 g
% control (fasted C57BL/6 mice [4]; 300 minutes): 105%

Ki [5]: 4.13 nM
B1: analog no. 12 (peptide)
peptide: [Dap](Myristoyl)RTHRHS[Nle]EIRTPDINPAWYASRGIRPVGRF-NH2
modifications: N-terminus assumed
SMILES: CCCCCCCCCCCCCC(=O)NC[C@H](N)C(=O)N[C@@H](CCCNC(=N)N)C(=O)N[C@H](C(=O)N[C@@H](Cc1c[nH]cn1)C(=O)N[C@@H](CCCNC(=N)N)C(=O)N[C@@H](Cc1c[nH]cn1)C(=O)N[C@@H](CO)C(=O)N[C@@H](CCCC)C(=O)N[C@@H](CCC(=O)O)C(=O)N[C@H](C(=O)N[C@@H](CCCNC(=N)N)C(=O)N[C@H](C(=O)N1CCC[C@H]1C(=O)N[C@@H](CC(=O)O)C(=O)N[C@H](C(=O)N[C@@H](CC(N)=O)C(=O)N1CCC[C@H]1C(=O)N[C@@H](C)C(=O)N[C@@H](Cc1c[nH]c2ccccc12)C(=O)N[C@@H](Cc1ccc(O)cc1)C(=O)N[C@@H](C)C(=O)N[C@@H](CO)C(=O)N[C@@H](CCCNC(=N)N)C(=O)NCC(=O)N[C@H](C(=O)N[C@@H](CCCNC(=N)N)C(=O)N1CCC[C@H]1C(=O)N[C@H](C(=O)NCC(=O)N[C@@H](CCCNC(=N)N)C(=O)N[C@@H](Cc1ccccc1)C(N)=O)C(C)C)[C@@H](C)CC)[C@@H](C)CC)[C@@H](C)O)[C@@H](C)CC)[C@@H](C)O
notes: analog of human PrRP31
